Experimental data: patent publication EP0272929B1, “Enkephalinase for therapeutic use” (GENENTECH, INC., priority 1986, dated 1988)
pKi: −log10 of the molar value. Entries after “also recorded” stand apart in the source; their conditions may differ.

Legend:
[1] = biological target: T1, enkephalinase (Mustela putorius furo, UniProt M3XUG8); assay: Enkephalinase activity of tissue membrane fractions: cleavage of (3H-Tyr1,DAla2,Leu5)enkephalin, inhibition by inhibitors and substrates; assay type: biochemical, ferret
T1 sequence (M3XUG8 2-749): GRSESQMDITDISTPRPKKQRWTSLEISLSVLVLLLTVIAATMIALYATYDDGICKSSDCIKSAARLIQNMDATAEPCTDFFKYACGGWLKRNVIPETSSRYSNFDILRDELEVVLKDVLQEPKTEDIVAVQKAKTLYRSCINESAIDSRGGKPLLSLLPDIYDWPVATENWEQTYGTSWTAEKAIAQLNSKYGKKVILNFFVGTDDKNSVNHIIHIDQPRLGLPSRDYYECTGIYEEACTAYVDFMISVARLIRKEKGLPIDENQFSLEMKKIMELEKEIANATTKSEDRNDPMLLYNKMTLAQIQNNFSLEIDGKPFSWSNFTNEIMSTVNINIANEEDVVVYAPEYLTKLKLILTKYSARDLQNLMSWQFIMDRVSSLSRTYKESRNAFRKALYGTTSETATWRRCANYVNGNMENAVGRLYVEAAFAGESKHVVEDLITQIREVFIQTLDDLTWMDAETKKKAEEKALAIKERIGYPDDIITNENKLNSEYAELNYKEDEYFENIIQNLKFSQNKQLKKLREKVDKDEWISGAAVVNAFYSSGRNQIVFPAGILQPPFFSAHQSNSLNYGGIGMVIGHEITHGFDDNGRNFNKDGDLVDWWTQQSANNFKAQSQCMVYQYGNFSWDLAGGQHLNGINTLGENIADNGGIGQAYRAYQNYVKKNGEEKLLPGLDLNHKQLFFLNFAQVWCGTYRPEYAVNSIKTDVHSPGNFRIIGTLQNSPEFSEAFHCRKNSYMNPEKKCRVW
Method: In this series of experiments, the tissue locations of enkephalinase were determined. Enkephalinase was purified from the ferret kidney to near homogeneity using published methods (Malfroy and Schwartz, Supra). Enkephalinase activity in membrane fractions derived from the vagus nerve, tracheal epithelium, submucosa, muscle, lungs, and kidneys of ferrets was determined. Ferrets were anesthetized, and the vagi, trachea, lungs, and kidneys removed. The tracheal epithelium, submucosa, and muscle were separated from each other by incubating the trachea in Ca⁺⁺-free medium for 15 minutes, after which time, the epithelium was easily removed. The muscle was then separated from the gland-containing submucosa. Each tissue was minced and then homogenized in 50mM HEPES buffer (pH 7.4) using a Polytron homogenizer.
Enkephalinase activity was measured by determining the rates of cleavage of (³H-Tyr¹, DAla², Leu⁵)enkephalin (Research Products International) by membrane fractions or purified enkephalinase. Fifty µl of membrane fraction was incubated for 40 minutes at room temperature with 50 µl of buffer containing (³H-Tyr¹, DAla²,Leu⁵)enkephalin (20nM), after which time the reaction was quenched by adding 50 µl of 2N HCl.
Seventy-five µl of this solution was applied to columns containing polystyrene beads (Poropak-Q); the characteristic metabolite, ³H-Tyr-DAla-Gly, eluted with water, and the radioactivity determined. The protein concentrations were determined by the Bradford procedure (Bradford, M.M. Analytical Biochem. 72:248-254 [1976]), and results of enkephalinase activities were expressed as fmoles substrate cleaved per min per mg protein.

[2] = test system: ferret tracheal smooth muscle; assay: Isometric tension of isolated tracheal smooth muscle rings (contraction by peptides, effect of inhibitors); assay type: cell-based
Method: Twenty-seven ferrets were anesthetized with pentobarbital sodium (45-60 mg/kg, i.p.), and the trachea were removed. Transverse rings (8 mm long) were cut from the trachea and mounted in glass chambers filled with 14 ml of Krebs-Henseleit solution of the following composition (in mMoles/L): NaCl 118, KCl 5.9, CaCl₂ 2.5, MgSO₄ 1.2, NaH₂PO4 1.2, NaHCO₃ 25.5, glucose 5.6, 0.1% bovine serum albumin, and penicillin-streptomycin (100 Units/ml). The soluiton was maintained at 37°C and was aerated continuously in a mixture of 95% O₂-5% CO₂, which produced a pH of 7.4. Six tracheal rings were studied concurrently.
(§1) The tracheal rings were connected to strain gauges (Grass FT03) for continuous recording of isometric tension, and the rings were placed between two rectangular platinum electrodes (6 x 40 mm) for electrical field stimulation. The rings were initially stretched to a tension of 20 g for 30 seconds and were then allowed to equilibrate for 1 hour while resting tension was adjusted to 4 g (Skoogh, B-E. et al., J. Appl. Physiol. 53: 253-257 [1982]). During equilibration, the medium was changed every 15 minutes. […] Id.
The responsiveness to substance P (using concentrations ranging from 10⁻⁸ M to 10⁻⁵ M) and to leu-thiorphan and cumulative dose-response curves to substance P (Peninsula Labs) were obtained. Each succeeding concentration of substance P was added after contraction reached a plateau. After completion of the first dose-response curve to substance P, leu-thiorphan (10⁻⁵ M, Squibb Pharmaceutical) was added to the organ bath. Following a 15 minute incubation, a second dose-response curve to substance P was obtained.
The N-terminal fragment, substance P₁₋₉ was studied because enkephalinase cleaves substance P between the 9 and 10 positions (Matsas, R. et al., Proc. Natl. Acad. Sci. [USA] 80: 3111-3115 [1983]), generating that fragment. (10⁻⁵ M Peninsula Labs). Experiments were also carried out with (DPro², DTrp^7,9)-substance P (10⁻⁵ M) (Peninsula Labs), a substance P antagonist (Hakanson, R. et al., Br. J. Pharmac. 77: 697-700 [1982]) by adding the antagonist after the response to substance P (10⁻⁶ M) and leu-thiorphan (10⁻⁵ M) reached a plateau.
Data were expressed as mean ± SE. For the dose-response curves to substance P, the means between two groups at each concentration were compared by a paired t test. For the studies of electrical field stimulation, responses were compared by one way analysis of variance and Newman-Keuls multiple range test. Significance was accepted at P < 0.05. […]

[3] = test system: ferret tracheal smooth muscle; assay: Electrical field stimulation-induced contraction of isolated tracheal smooth muscle; assay type: cell-based; conditions: 5 Hz; leu-thiorphan 10⁻⁵ M, 15 min
Method: as §1
Increasing concentrations of leu-thiorphan (10⁻¹¹ to 10⁻⁴ M) were added and the stimuli repeated to determine whether leu-thiorphan modulated electrical field stimulation-induced contractions. […] After determining control responses to electrical field stimulation (5 Hz), leu-thiorphan (10⁻⁵ M; 15 min) was added, the stimulus repeated, (DPro²,DTrp^7,9)substance P, the substance P antagonist (10⁻⁵ M; 15 min; Peninisula Labs) was added, and the stimulus was repeated.
Data were expressed as mean ± SE. For the dose-response curves to tachykinins the means between two groups at each concentration were analyzed by an unpaired t test. For the study of electrical field stimulation, responses were compared by one way analysis of variance and Newman-Keuls multiple range test. Significance was accepted at p<0.05.

[4] = test system: longitudinal ileal smooth muscle; assay: Contraction of longitudinal ileal smooth muscle; assay type: cell-based, ferrets; conditions: inhibitor 10⁻⁵ M
Description: Using methods similar to those with ferret airway smooth muscle, described in Example 7, longitudinal ileal smooth muscle was examined. […] Leu-thiorphan (10⁻⁵ M) shifted the dose response curve to lower concentrations by 1 log unit.

[5] = biological target: T2, purified rat kidney enkephalinase (Rattus norvegicus, UniProt P07861); assay type: biochemical; conditions: peptide 10⁻⁴M, 50 ng enzyme, 30 minutes at 37°C
T2 construct: purified rat kidney enkephalinase (50 ng in 150 ul 50 mM, pH7.4 HEPES buffer containing 0.02% Triton X-100); from tissue; host or cells: rat kidney
T2 sequence (P07861 1-750): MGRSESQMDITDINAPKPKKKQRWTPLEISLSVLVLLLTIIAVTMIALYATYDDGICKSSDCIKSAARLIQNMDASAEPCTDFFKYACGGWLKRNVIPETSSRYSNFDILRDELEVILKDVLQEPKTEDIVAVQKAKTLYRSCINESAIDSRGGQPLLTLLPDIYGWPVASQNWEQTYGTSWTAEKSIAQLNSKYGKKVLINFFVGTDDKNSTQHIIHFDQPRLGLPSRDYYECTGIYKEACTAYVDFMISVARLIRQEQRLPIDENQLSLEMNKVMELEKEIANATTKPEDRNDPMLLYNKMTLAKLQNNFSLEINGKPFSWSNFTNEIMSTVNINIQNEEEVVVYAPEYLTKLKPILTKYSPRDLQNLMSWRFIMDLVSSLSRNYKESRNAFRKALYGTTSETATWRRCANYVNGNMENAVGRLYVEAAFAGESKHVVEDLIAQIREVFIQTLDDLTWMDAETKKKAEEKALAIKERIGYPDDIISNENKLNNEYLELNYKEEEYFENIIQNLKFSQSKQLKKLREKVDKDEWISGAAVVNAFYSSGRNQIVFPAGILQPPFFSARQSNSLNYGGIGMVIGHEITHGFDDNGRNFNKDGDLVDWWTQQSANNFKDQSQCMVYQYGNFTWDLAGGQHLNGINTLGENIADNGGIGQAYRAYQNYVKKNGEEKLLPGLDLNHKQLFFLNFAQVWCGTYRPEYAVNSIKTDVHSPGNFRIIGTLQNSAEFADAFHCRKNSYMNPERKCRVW

| Compound | pKi ([1]; Epthelium membrane fraction) | pKi ([1]; Kidney) | pKi ([1]; Lung membrane fraction) | pKi ([1]; Muscle membrane fraction) | pKi ([1]; Submucosa membrane fraction) | pKi ([1]; Vagus/N. membrane fraction) | effect alone on resting tension ([2]; 10⁻⁵ M) | effect on resting tension ([2]; concentrations up to 10⁻⁴ M) | shift of the dose-response curve to neurokinin A to lower concentrations ([2]; inhibitor 10⁻⁵ M) | shift of the dose-response curve to neurokinin B to lower concentrations ([2]; inhibitor 10⁻⁵ M) | shift of the dose-response curve to substance P to lower concentrations ([2]; inhibitor 10⁻⁵ M) | response to electrical field stimulation, percent of control responses without added drugs [3] [%] | shift of the dose response curve to substance P to lower concentrations [4] [log unit] | fraction of the peptide degraded / hydrolyzed [5] [%] |
| --- | --- | --- | --- | --- | --- | --- | --- | --- | --- | --- | --- | --- | --- | --- |
| CC(C)C[C@H](NC(=O)C(CS)Cc1ccccc1)C(=O)O (some centres unmarked) [leu-thiorphan, Leucine-thiorphan] | 8.06 | 8.48 | 8.55 | 8.68 | 8.55 | 8.68 | no significant effect on resting tension | did not alter resting tension in any experiment | two-log units | three-log units | approximately one log unit; also recorded: approximately one-log unit | 118 ± 1.7 | 1 | – |
| bombesin | – | – | – | – | – | – | – | – | – | – | – | – | – | 80 |
